The NIST ThermoML archive (doi:10.1016/j.jct.2014.05.014)

Test: cn = amount concentration of the nth substance listed, in mol/dm3
Details: 101.3 kPa, Liquid; for electrical conductivity: Alternating current cell with electrodes; for viscosity: Falling or rolling sphere viscometry; for mass density: Vibrating tube method

CC(N)C(=O)[O-].[K+] (stereo not drawn) [potassium DL-alaninate] + O
Details	electrical conductivity [S/m]	mass density [kg/m3]	viscosity [mPa·s]
303.15 K, c1 = 0.495	–	1024.1	–
303.15 K, c1 = 0.514	–	–	0.942
303.15 K, c1 = 0.526	3.96	–	–
303.15 K, c1 = 1.009	6.63	–	–
303.15 K, c1 = 1.014	–	1051.7	–
303.15 K, c1 = 1.029	–	–	1.118
303.15 K, c1 = 1.499	8.42	–	–
303.15 K, c1 = 1.509	–	1078.7	–
303.15 K, c1 = 1.524	–	–	1.342
303.15 K, c1 = 1.954	–	1103.2	–
303.15 K, c1 = 1.999	–	–	1.6
303.15 K, c1 = 2.018	9.49	–	–
303.15 K, c1 = 2.501	9.88	–	–
303.15 K, c1 = 2.507	–	1131.4	–
303.15 K, c1 = 2.522	–	–	1.964
303.15 K, c1 = 2.988	–	1155.8	–
303.15 K, c1 = 3.046	9.87	–	–
303.15 K, c1 = 3.048	–	–	2.422
303.15 K, c1 = 3.497	9.58	–	–
303.15 K, c1 = 3.499	–	1181	–
308.15 K, c1 = 0.495	–	1022.4	–
308.15 K, c1 = 0.514	–	–	0.845
308.15 K, c1 = 0.526	4.34	–	–
308.15 K, c1 = 1.009	7.25	–	–
308.15 K, c1 = 1.014	–	1049.8	–
308.15 K, c1 = 1.029	–	–	1.009
308.15 K, c1 = 1.499	9.18	–	–
308.15 K, c1 = 1.509	–	1076.7	–
308.15 K, c1 = 1.524	–	–	1.203
308.15 K, c1 = 1.954	–	1101.1	–
308.15 K, c1 = 1.999	–	–	1.429
308.15 K, c1 = 2.018	10.4	–	–
308.15 K, c1 = 2.501	10.8	–	–
308.15 K, c1 = 2.507	–	1129.2	–
308.15 K, c1 = 2.522	–	–	1.745
308.15 K, c1 = 2.988	–	1153.4	–
308.15 K, c1 = 3.046	10.9	–	–
308.15 K, c1 = 3.048	–	–	2.135
308.15 K, c1 = 3.497	10.6	–	–
308.15 K, c1 = 3.499	–	1178.4	–
313.15 K, c1 = 0.495	–	1020.5	–
313.15 K, c1 = 0.514	–	–	0.769
313.15 K, c1 = 0.526	4.73	–	–
313.15 K, c1 = 1.009	7.84	–	–
313.15 K, c1 = 1.014	–	1047.7	–
313.15 K, c1 = 1.029	–	–	0.909
313.15 K, c1 = 1.499	9.94	–	–
313.15 K, c1 = 1.509	–	1074.5	–
313.15 K, c1 = 1.524	–	–	1.093
313.15 K, c1 = 1.954	–	1098.8	–
313.15 K, c1 = 1.999	–	–	1.29
313.15 K, c1 = 2.018	11.2	–	–
313.15 K, c1 = 2.501	11.8	–	–
313.15 K, c1 = 2.507	–	1126.8	–
313.15 K, c1 = 2.522	–	–	1.569
313.15 K, c1 = 2.988	–	1150.9	–
313.15 K, c1 = 3.046	11.8	–	–
313.15 K, c1 = 3.048	–	–	1.907
313.15 K, c1 = 3.497	11.6	–	–
313.15 K, c1 = 3.499	–	1175.8	–
318.15 K, c1 = 0.495	–	1018.4	–
318.15 K, c1 = 0.514	–	–	0.705
318.15 K, c1 = 0.526	5.12	–	–
318.15 K, c1 = 1.009	8.45	–	–
318.15 K, c1 = 1.014	–	1045.6	–
318.15 K, c1 = 1.029	–	–	0.83
318.15 K, c1 = 1.499	10.7	–	–
318.15 K, c1 = 1.509	–	1072.3	–
318.15 K, c1 = 1.524	–	–	1
318.15 K, c1 = 1.954	–	1096.5	–
318.15 K, c1 = 1.999	–	–	1.17
318.15 K, c1 = 2.018	12.1	–	–
318.15 K, c1 = 2.501	12.7	–	–
318.15 K, c1 = 2.507	–	1124.3	–
318.15 K, c1 = 2.522	–	–	1.426
318.15 K, c1 = 2.988	–	1148.3	–
318.15 K, c1 = 3.046	12.8	–	–
318.15 K, c1 = 3.048	–	–	1.712
318.15 K, c1 = 3.497	12.6	–	–
318.15 K, c1 = 3.499	–	1173.1	–
323.15 K, c1 = 0.514	–	–	0.644
323.15 K, c1 = 0.526	5.5	–	–
323.15 K, c1 = 1.009	9.06	–	–
323.15 K, c1 = 1.029	–	–	0.76
323.15 K, c1 = 1.499	11.5	–	–
323.15 K, c1 = 1.524	–	–	0.922
323.15 K, c1 = 2.018	12.9	–	–
323.15 K, c1 = 2.501	13.7	–	–
323.15 K, c1 = 3.046	13.9	–	–
323.15 K, c1 = 3.497	13.7	–	–
